Key:
[1] = xn = mol fraction of the nth substance listed; details: 298.15 K, 101 kPa, Liquid, Vibrating tube method
[2] = excess molar enthalpy (molar enthalpy of mixing); xn = mol fraction of the nth substance listed; details: 298.15 K, 101 kPa, Liquid, Calvet calorimetry

CCCOC(=O)CCC [propyl butanoate] + ClCCCCCl
Details | excess molar enthalpy [kcal/mol] | mass density [kg/m3]
[1], x1 = 0.1349 | – | 1087.88
[1], x1 = 0.1841 | – | 1072.12
[1], x1 = 0.233 | – | 1056.97
[1], x1 = 0.2856 | – | 1041.17
[1], x1 = 0.3405 | – | 1025.23
[1], x1 = 0.3956 | – | 1009.76
[1], x1 = 0.5129 | – | 978.41
[1], x1 = 0.6385 | – | 947.12
[1], x1 = 0.7731 | – | 915.88
[1], x1 = 0.8454 | – | 900
[1], x1 = 0.918 | – | 884.64
[1], x1 = 1 | – | 867.9
[2], x1 = 0.0503 | -0.00454 | –
[2], x1 = 0.1217 | -0.0117 | –
[2], x1 = 0.2009 | -0.0203 | –
[2], x1 = 0.2826 | -0.0306 | –
[2], x1 = 0.3602 | -0.0416 | –
[2], x1 = 0.4315 | -0.0516 | –
[2], x1 = 0.5579 | -0.0629 | –
[2], x1 = 0.6248 | -0.0612 | –
[2], x1 = 0.699 | -0.0559 | –
[2], x1 = 0.7829 | -0.0457 | –
[2], x1 = 0.8689 | -0.0301 | –
[2], x1 = 0.9389 | -0.0158 | –

ClCCCCCCCl [1,6-dichlorohexane] + CCCOC(=O)CC
Details | excess molar enthalpy [kcal/mol] | mass density [kg/m3]
[1], x2 = 0.0665 | – | 1052.5
[1], x2 = 0.1321 | – | 1041.17
[1], x2 = 0.1948 | – | 1030.19
[1], x2 = 0.2568 | – | 1019.24
[1], x2 = 0.3171 | – | 1008.42
[1], x2 = 0.3785 | – | 997.31
[1], x2 = 0.556 | – | 964.22
[1], x2 = 0.7294 | – | 930.71
[1], x2 = 0.7852 | – | 919.58
[1], x2 = 0.8399 | – | 908.58
[1], x2 = 0.8955 | – | 897.26
[1], x2 = 0.949 | – | 886.33
[2], x2 = 0.0728 | -0.00598 | –
[2], x2 = 0.1664 | -0.0131 | –
[2], x2 = 0.2656 | -0.0232 | –
[2], x2 = 0.3635 | -0.0354 | –
[2], x2 = 0.4374 | -0.0418 | –
[2], x2 = 0.4861 | -0.0459 | –
[2], x2 = 0.5174 | -0.0483 | –
[2], x2 = 0.5675 | -0.0495 | –
[2], x2 = 0.6298 | -0.0483 | –
[2], x2 = 0.7081 | -0.043 | –
[2], x2 = 0.7895 | -0.0373 | –
[2], x2 = 0.8738 | -0.0237 | –
[2], x2 = 0.9478 | -0.011 | –

ClCCCCCCl [1,5-dichloropentane] + CCCOC(C)=O
Details | excess molar enthalpy [kcal/mol] | mass density [kg/m3]
[1], x2 = 0.0592 | – | 1083.72
[1], x2 = 0.126 | – | 1070.79
[1], x2 = 0.1854 | – | 1059.08
[1], x2 = 0.2502 | – | 1046.15
[1], x2 = 0.3122 | – | 1033.6
[1], x2 = 0.3736 | – | 1021.02
[1], x2 = 0.495 | – | 995.63
[1], x2 = 0.5537 | – | 983.11
[1], x2 = 0.6672 | – | 958.42
[1], x2 = 0.7269 | – | 945.17
[1], x2 = 0.7802 | – | 933.16
[1], x2 = 0.8365 | – | 920.34
[1], x2 = 0.889 | – | 908.23
[1], x2 = 0.9471 | – | 894.67
[2], x2 = 0.0656 | -0.00382 | –
[2], x2 = 0.1426 | -0.00478 | –
[2], x2 = 0.2338 | -0.0134 | –
[2], x2 = 0.3247 | -0.0239 | –
[2], x2 = 0.4088 | -0.0337 | –
[2], x2 = 0.4844 | -0.0392 | –
[2], x2 = 0.5426 | -0.0409 | –
[2], x2 = 0.5428 | -0.0411 | –
[2], x2 = 0.6183 | -0.0409 | –
[2], x2 = 0.6974 | -0.0366 | –
[2], x2 = 0.7844 | -0.0282 | –
[2], x2 = 0.8682 | -0.0184 | –
[2], x2 = 0.9448 | -0.00813 | –

CCCOC=O [propyl methanoate] + ClCCCl
Details | excess molar enthalpy [kcal/mol] | mass density [kg/m3]
[1], x1 = 0.0502 | – | 1224.05
[1], x1 = 0.0994 | – | 1203.36
[1], x1 = 0.1495 | – | 1182.95
[1], x1 = 0.2004 | – | 1162.75
[1], x1 = 0.2543 | – | 1141.88
[1], x1 = 0.308 | – | 1121.58
[1], x1 = 0.3635 | – | 1101.24
[1], x1 = 0.4207 | – | 1080.82
[1], x1 = 0.4795 | – | 1060.31
[1], x1 = 0.5379 | – | 1040.49
[1], x1 = 0.599 | – | 1020.32
[1], x1 = 0.6634 | – | 999.69
[1], x1 = 0.7281 | – | 979.46
[1], x1 = 0.7928 | – | 959.73
[1], x1 = 0.8612 | – | 939.48
[1], x1 = 1 | – | 899.81
[2], x1 = 0.074 | -0.00956 | –
[2], x1 = 0.1687 | -0.021 | –
[2], x1 = 0.2733 | -0.0368 | –
[2], x1 = 0.3675 | -0.0478 | –
[2], x1 = 0.4473 | -0.0576 | –
[2], x1 = 0.5035 | -0.0607 | –
[2], x1 = 0.5082 | -0.0609 | –
[2], x1 = 0.5746 | -0.0598 | –
[2], x1 = 0.6509 | -0.0569 | –
[2], x1 = 0.7385 | -0.049 | –
[2], x1 = 0.8389 | -0.0344 | –
[2], x1 = 0.9272 | -0.0184 | –

From the NIST ThermoML archive (doi:10.1016/j.jct.2008.10.007)
